One series deals with thrombocytes. Briefly: Collagen-induced aggregation of thrombocytes in human platelet-rich plasma (Born and Cross). The note with it: 10 min, platelet-rich plasma of healthy human subjects, incubated 10 minutes at 37° C. before collagen, determined graphically, read-out: EC50 (dosage producing 50% inhibition of the thrombocyte aggregation). Type of series: cell-based. The method, then:
The aggregation of thrombocytes was measured according to the method of BORN and CROSS [J. Physiol. 170, 397 (1964)] in the platelet-rich plasma of healthy human test subjects. To inhibit coagulation, the blood was admixed with a 3.14% sodium citrate solution in a volumetric ration of 1:10.
The decrease in optical density was measured and recorded photometrically after the addition of the aggreation-inducing substance. From the angle of inclination of the density curve, the rate of aggregation was estimated (Vmax). The optical density was taken as the point on the curve where the most light was transmitted (O.D.).
Small doses of collagen were chosen, but sufficient to give irreversible aggregation. (Commercial collagen of Hormonchemie, Munich, Germany.)
Before the addition of collagen, the plasma was incubated with the substance for 10 minutes at 37° C.,
The dosage of the test compound which produced a 50% inhibition of the thrombocyte aggregation was determined graphically (EC50).

For another series, the system named is mice. Nature of the series: Acute toxicity after oral administration of a single dose. Type of series: in vivo. The conditions noted are these: mouse, oral single dose 250 mg/kg, observation time 7 days. As to the method:
(§1) The acute toxicity was determined in groups of 5 mice each after oral administration of a single dose of 250 mg/kg (observation time: 7 days). The test compound was suspended in 2% methyl cellulose, and after addition of some water, each substance was administered to the conscious animals by means of a stomach tube.

Test in series [1]: as above
Type of series: in vivo. The note with it: in vivo; mouse, oral single dose 250 mg/kg, 5 mice each, observation time 7 days; read-out: Acute toxicity per os. The method, then:
as §1

Some results are limits rather than exact numbers.

For orientation: EC50 means the concentration that produces a half-maximal response.

Turning to `CCSc1ncnc2c(N3CC[S+]([O-])CC3)nc(N3CCNCC3)nc12` [B, 8-Ethylthio-4-(1-oxido-thiomorpholino)-2-piperazino-pyrimido-[5,4-d]-pyrimidine], in the series on thrombocytes, the EC50 is less than 10 nM.

Take `c1ccc(CSc2ncnc3c(N4CCOCC4)nc(N4CCNCC4)nc23)cc1` [C, 8-Benzylthio-4-morpholino-2-piperazino-pyrimido-[5,4-d]-pyrimidine]: the animals died in the series with mice is reported as 0 out of 5 animals. For the same compound, the LD50 at 168 h in series [1] was greater than 250 mg/kg. Besides, the EC50 in the series on thrombocytes was found to be 8.5 nM.

Consider `CSc1ncnc2c(N3CC[S+]([O-])CC3)nc(N3CCNCC3)nc12` [Compound A, 8-Methylthio-4-(1-oxido-thiomorpholino)-2-piperazino-pyrimido-[5,4-d]-pyrimidine], for which the EC50 in the series on thrombocytes was 1 nM.

As for `[O-][S+]1CCN(c2nc(N3CCNCC3)nc3c(SCCc4ccccc4)ncnc23)CC1` [Compound E, 4-(1-Oxido-thiomorpholino)-8-phenethylthio-2-piperazino-pyrimido-[5,4-d]-pyrimidine], the animals died in the series with mice is listed as 0 out of 5 animals. For the same compound, the LD50 at 168 h in series [1] is greater than 250 mg/kg. In the series on thrombocytes, the EC50 came out at 22 nM.

Regarding `[O-][S+]1CCN(c2nc(N3CCNCC3)nc3c(SCc4ccccc4)ncnc23)CC1` [D, 8-Benzylthio-4-(1-oxido-thiomorpholino)-2-piperazino-pyrimido-[5,4-d]-pyrimidine], the animals died with mice was 0 out of 5 animals. For the same compound, in series [1], the LD50 at 168 h was greater than 250 mg/kg. In addition, the EC50 in the series on thrombocytes stood at 30 nM.

With `[O-][S+]1CCN(c2nc(N3CCN(CCO)CC3)nc3c(SCc4ccccc4)ncnc23)CC1` [F, 8-Benzylthio-2-[N-(2-hydroxyethyl)-piperazino]-4-(1-oxido-thiomorpholino)-pyrimido-[5,4-d]-pyrimidine], the animals died in the series with mice is reported as 0 out of 5 animals. Besides, the LD50 at 168 h in series [1] is greater than 250 mg/kg. The EC50 in the series on thrombocytes worked out at 380 nM.

With `CCN(CC)CCSc1ncnc2c(N3CC[S+]([O-])CC3)nc(N3CCNCC3)nc12` [G, 8-(2-Diethylaminoethyl-thio)-4-(1-oxido-thiomorpholino)-2-piperazino-pyrimido-[5,4-d]-pyrimidine], the animals died in the series on mice is recorded as 0 out of 5 animals. For the same compound, the LD50 at 168 h in series [1] was greater than 250 mg/kg. Besides, the EC50 in the series on thrombocytes was 20 nM.

In the case of `O=C(c1ccco1)N1CCN(c2nc(N3CCOCC3)c3ncnc(SCc4ccccc4)c3n2)CC1` [H, 8-Benzylthio-2-[N-(2-furoyl)-piperazino]-4-morpholino-pyrimido-[5,4-d]-pyrimidine], the animals died with mice is recorded as 0 out of 5 animals. Besides, in series [1], the LD50 at 168 h is greater than 250 mg/kg. The EC50 with thrombocytes turned out to be 100 nM.

In the case of `COc1ccc(CSc2ncnc3c(N4CCOCC4)nc(N4CCNCC4)nc23)cc1OC` [I, 8-(3,4-dimethoxybenzyl-thio)-4-morpholino-2-piperazino-pyrimido-[5,4-d]-pyrimidine], in the series on thrombocytes, the EC50 was 10 nM.

In the case of `CN1CCN(c2nc(N3CC[S+]([O-])CC3)c3ncnc(SCc4ccccc4)c3n2)CC1` [K, 8-Benzylthio-2-(N-methyl-piperazino)-4-(1-oxido-thio-morpholino)-pyrimido-[5,4-d]-pyrimidine], in the series with mice, the animals died was 0 out of 5 animals. Also, in series [1], the LD50 at 168 h is greater than 250 mg/kg. For the same compound, the EC50 with thrombocytes was determined as 350 nM.

As to `Clc1ccc(CSc2ncnc3c(N4CCOCC4)nc(N4CCNCC4)nc23)c(Cl)c1` [L, 8-(2,4-Dichlorobenzyl-thio)-4-morpholino-2-piperazino-pyrimido-[5,4-d]-pyrimidine], the animals died in the series with mice is listed as 0 out of 5 animals. Further, the LD50 at 168 h in series [1] was greater than 250 mg/kg. The EC50 with thrombocytes turned out to be 8 nM.

Turning to `O=CN1CCN(c2nc(N3CC[S+]([O-])CC3)c3ncnc(SCc4ccccc4)c3n2)CC1` [M, 8-Benzylthio-2-(N-formyl-piperazino)-4-(1-oxido-thiomorpholino)-pyrimido-[5,4-d]-pyrimidine], the animals died in the series on mice was 0 out of 5 animals. Besides, in series [1], the LD50 at 168 h is greater than 250 mg/kg. For the same compound, the EC50 in the series on thrombocytes turned out to be 15 nM.

Take `OCCOc1ncnc2c(N3CCOCC3)nc(N3CCNCC3)nc12` [N, 8-(2-Hydroxyethoxy)-4-morpholino-2-piperazino-pyrimido-[5,4-d]-pyrimidine]: the EC50 in the series on thrombocytes is 40 nM.

In the case of `[O-][S+]1CCN(c2nc(N3CCNCC3)nc3c(SCCO)ncnc23)CC1` [O, 8-(2-Hydroxyethyl-thio)-4-(1-oxido-thiomorpholino)-2-piperazino-pyrimido-[5,4-d]-pyrimidine], the animals died in the series with mice was 0 out of 5 animals. In series [1], the LD50 at 168 h was greater than 250 mg/kg. Moreover, in the series on thrombocytes, the EC50 turned out to be 28 nM.

On to `c1ccc(Sc2ncnc3c(N4CCSCC4)nc(N4CCNCC4)nc23)cc1` [P, 8-Phenylthio-2-piperazino-4-thiomorpholino-pyrimido-[5,4-d]-pyrimidine], for which the EC50 in the series on thrombocytes was roughly 100 nM.

Take `[O-][S+]1CCN(c2nc(N3CCNCC3)nc3c(OCc4ccccc4)ncnc23)CC1` [Q, 8-Benzyloxy-4-(1-oxido-thiomorpholino)-2-piperazino-pyrimido-[5,4-d]-pyrimidine]: the animals died in the series with mice is reported as 0 out of 5 animals. In addition, the LD50 at 168 h in series [1] is greater than 250 mg/kg. Moreover, in the series with thrombocytes, the half-maximal effective concentration (EC50) turned out to be 3.6 nM.

Take `[O-][S+]1CCN(c2nc(N3CCNCC3)nc3c(NCc4ccccc4)ncnc23)CC1` [R, 8-Benzylamino-4-(1-oxido-thiomorpholino)-2-piperazino-pyrimido-[5,4-d]-pyrimidine]: the animals died in the series on mice is given as 0 out of 5 animals. Besides, the LD50 at 168 h in series [1] is greater than 250 mg/kg. In the series with thrombocytes, the EC50 worked out at 4.2 nM.

Turning to `CN(Cc1ccccc1)c1ncnc2c(N3CC[S+]([O-])CC3)nc(N3CCNCC3)nc12` [S, 8-(N-Benzyl-methylamino)-4-(1-oxido-thiomorpholino)-2-piperazino-pyrimido-[5,4-d]-pyrimidine], in the series on mice, the animals died is listed as 0 out of 5 animals. Also, the LD50 at 168 h in series [1] is greater than 250 mg/kg. Moreover, in the series with thrombocytes, the EC50 was determined as 3 nM.

Turning to `c1ccc(CNc2ncnc3c(N4CCSCC4)nc(N4CCNCC4)nc23)cc1` [T, 8-Benzylamino-2-piperazino-4-thiomorpholino-pyrimido-[5,4-d]-pyrimidine], in the series with mice, the animals died is listed as 0 out of 5 animals. Further, the LD50 at 168 h in series [1] was greater than 250 mg/kg. In addition, in the series with thrombocytes, the EC50 was determined as 250 nM.

On to `CN(Cc1ccccc1)c1ncnc2c(N3CC[S+]([O-])CC3)nc(N3CCN(C=O)CC3)nc12` [U, 8-(N-Benzyl-methylamino)-2-(N-formyl-piperazino)-4-(1-oxido-thiomorpholino)-pyrimido-[5,4-d]-pyrimidine], for which the animals died in the series with mice is 1 out of 5 animals. Moreover, the LD50 at 168 h in series [1] is greater than 250 mg/kg. In addition, the EC50 with thrombocytes was 290 nM.

For `[O-][S+]1CCN(c2nc(N3CCNCC3)nc3c(Nc4ccccc4)ncnc23)CC1` [V, 8-Anilino-4-(1-oxido-thiomorpholino)-2-piperazino-pyrimido-[5,4-d]-pyrimidine], the animals died with mice is listed as 1 out of 5 animals. Also, the LD50 at 168 h in series [1] was greater than 250 mg/kg. Besides, the 50% effective concentration (EC50) with thrombocytes came out at 30 nM.

(Values after US4690923A, “2-(Perhydro-1,4-diazino)-pyrimido(5,4-D)-pyrimidines, pharmaceutical compositions and use” (Karl Thomae GmbH, priority 1979, dated 1987).)
